pIC50: −log10 of the molar value. Read-outs that look alike come from different tables or passages of the source.
What was measured:
[1] = biological target: T1, NMDA glutamate receptors NR1/NR2B encoded by the human GRIN1 and GRIN2B genes (Homo sapiens, UniProt Q05586+Q13224); assay: IonWorks Barracuda automated patch clamp, inhibition of NR1/NR2B receptors in HEK293 cells; format: cell-based; conditions: for Effect on NR1/NR2B glutamate receptors (in words): patch clamp; for pIC50: co-application with EC50 L-glutamate, −40 mV, 8-point concentration-response
T1 construct: expressed in transfected cells
T1 sequence (Q13224 27-1484, other chains not shown): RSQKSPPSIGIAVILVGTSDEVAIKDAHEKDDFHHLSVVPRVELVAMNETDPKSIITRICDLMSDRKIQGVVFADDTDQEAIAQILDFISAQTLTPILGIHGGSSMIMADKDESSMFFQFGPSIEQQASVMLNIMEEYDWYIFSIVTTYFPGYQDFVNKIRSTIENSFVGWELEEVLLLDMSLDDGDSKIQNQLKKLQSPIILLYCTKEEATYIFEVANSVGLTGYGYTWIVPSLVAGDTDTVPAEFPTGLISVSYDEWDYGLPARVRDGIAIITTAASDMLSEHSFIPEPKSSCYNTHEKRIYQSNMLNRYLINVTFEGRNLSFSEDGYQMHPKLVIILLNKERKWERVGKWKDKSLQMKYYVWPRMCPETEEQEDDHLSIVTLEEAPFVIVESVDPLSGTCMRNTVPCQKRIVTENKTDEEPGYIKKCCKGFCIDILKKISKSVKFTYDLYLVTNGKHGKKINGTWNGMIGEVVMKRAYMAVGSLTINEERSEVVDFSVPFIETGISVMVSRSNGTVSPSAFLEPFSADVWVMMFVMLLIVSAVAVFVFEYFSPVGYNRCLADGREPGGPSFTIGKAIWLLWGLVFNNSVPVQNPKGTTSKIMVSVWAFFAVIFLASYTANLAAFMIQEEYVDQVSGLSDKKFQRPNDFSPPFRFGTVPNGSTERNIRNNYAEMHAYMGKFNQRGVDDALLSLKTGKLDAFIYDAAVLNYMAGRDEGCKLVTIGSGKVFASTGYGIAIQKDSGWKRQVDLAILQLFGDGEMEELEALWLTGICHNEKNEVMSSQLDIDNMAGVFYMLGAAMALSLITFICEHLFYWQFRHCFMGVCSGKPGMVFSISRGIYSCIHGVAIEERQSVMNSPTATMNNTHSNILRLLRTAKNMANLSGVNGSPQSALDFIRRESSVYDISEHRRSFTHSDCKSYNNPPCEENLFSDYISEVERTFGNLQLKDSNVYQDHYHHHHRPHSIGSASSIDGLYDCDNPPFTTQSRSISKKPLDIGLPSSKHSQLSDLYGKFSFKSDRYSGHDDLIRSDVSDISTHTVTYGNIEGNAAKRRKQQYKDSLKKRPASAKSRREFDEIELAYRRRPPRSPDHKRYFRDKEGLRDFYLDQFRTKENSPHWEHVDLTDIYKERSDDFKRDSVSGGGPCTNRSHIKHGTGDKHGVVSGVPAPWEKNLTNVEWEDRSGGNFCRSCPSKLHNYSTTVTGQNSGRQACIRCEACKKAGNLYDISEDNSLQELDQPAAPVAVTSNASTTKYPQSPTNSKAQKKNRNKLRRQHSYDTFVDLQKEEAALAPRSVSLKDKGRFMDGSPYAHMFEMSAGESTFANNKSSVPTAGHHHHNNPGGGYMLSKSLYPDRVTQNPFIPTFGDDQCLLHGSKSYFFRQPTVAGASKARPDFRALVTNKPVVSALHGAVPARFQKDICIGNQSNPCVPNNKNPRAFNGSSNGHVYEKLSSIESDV
Procedure: Compounds were tested for inhibition of NMDA receptors using NMDA glutamate receptors NR1/NR2B encoded by the human GRIN1 and GRIN2B genes, expressed in HEK293 cells (originally from ATCC, Manassas, VA). Cells were maintained in tissue culture incubators, and stocks were maintained in cryogenic storage. Cells used for electrophysiology were plated in 150-mm plastic culture dishes. HEK293 cells were transfected with the appropriate ion channel or receptor cDNA(s) encoding NR1 and NR2B. Stable transfectants were selected using the G418 and Zeocin™-resistance genes incorporated into the expression plasmid. Selection pressure was maintained with G418 and Zeocin™ in the culture medium. Cells were cultured in Dulbecco's Modified Eagle Medium/Nutrient Mixture F-12 (D-MEM/F-12) supplemented with 10% fetal bovine serum, 100 U/mL penicillin G sodium, 100 μg/mL streptomycin sulfate, 100 μg/mL Zeocin™, 5 μg/mL blasticidin, and 500 μg/mL G418.
Test compounds were evaluated in 8-point concentration-response format (8 replicate wells/concentration). All test and control solutions contained 0.3% DMSO. The test article formulations were loaded in a 384-well plate using an automated liquid handling system (SciClone ALH3000, Caliper LifeScienses).
The effects of the test compounds were evaluated using the IonWorks® Barracuda™ Automated Patch Clamp System. Intracellular solution contained 50 mM CsCl, 90 mM CsF, 2 mM MgCl2, 5 mM EGTA, and 10 mM HEPES, pH 7.2. This solution was prepared in batches and stored refrigerated. In preparation for a recording session, the intracellular solution was loaded into the intracellular compartment of the PPC planar electrode. Extracellular solution (137 mM NaCl; 1.0 mM KCl; 5 mM CaCl2); 10 mM HEPES; 10 mM glucose; pH 7.4. Patch clamp measurements were made with a holding potential of −70 mV, and the potential during compound application was −40 mV. Extracellular buffer was loaded into the PPC plate wells (11 μL per well). Cell suspension was then pipetted into the wells (9 μL per well) of the PPC planar electrode. Whole-cell recording configuration was established via patch perforation with membrane currents recorded by on-board patch clamp amplifiers. […] The application consisted of two additions of 20 μL test solution containing antagonists at 10 μL/s (2 second total application time). First addition of 2× concentrated articles were preapplied for 5 minutes before the second addition of 1× concentrated articles. Data acquisition was performed via the IonWorks® Barracuda™ software, and data was analyzed using Microsoft Excel (Microsoft Corp., Redmond, WA). Concentration-response data was fitted to a Hill equation of the following form: RESPONSE=Base+[(Max−Base)/(1+(xhalf/x)^rate)] where Base is the response at low concentrations of test article, Max is the maximum response at high concentrations, xhalf is the EC50, or IC50, the concentration of test article producing either half-maximal activation or inhibition, and rate is the Hill coefficient. Nonlinear least squares fits were made assuming a simple binding model. Fits were weighted by the standard deviation. No assumptions about the fit parameters were made; the fit parameters were determined by the algorithm.

[2] = 7 days of infusion, cited from earlier work
[3] = read-out: Steady state current IC50

| pIC50 ([1]; read-out: Peak current IC50) | pIC50 [1, 3] | Structure (SMILES) | Effect on NR1/NR2B glutamate receptors (in words) [1] | whole brain concentration higher than free concentration in serum ([2]; 20 mg/kg/day) [fold] | whole brain concentration higher than free concentration in serum ([2]; 100 mg/kg/day) [fold] |
| --- | --- | --- | --- | --- | --- |
| 5.00 | 5.17 | CCC12CC3(N)CC(CC)(C1)CC(O[N+](=O)[O-])(C3)C2 [YQW-036, Nitrosynapsin, reference compound] | – | – | – |
| 5.10 | 5.29 | CCC(O[N+](=O)[O-])C12CC3(C)CC(C)(CC(CCN)(C3)C1)C2 (stereo not drawn) [Cmpd 3] | – | – | – |
| 4.95 | 5.14 | CC12CC3CC(CN)(C1)CC(O[N+](=O)[O-])(C3)C2 (stereo not drawn) [Cmpd 5] | – | – | – |
| 5.34 | 5.58 | CC12CC3(C)CC(CN)(C1)CC(CO[N+](=O)[O-])(C2)C3 [Cmpd 1] | – | – | – |
| 4.59 | 4.68 | CCC12CC3CC(N)(C1)CC(CO[N+](=O)[O-])(C3)C2 (stereo not drawn) [NM-004, reference compound] | – | – | – |

More lines, now with the values behind:

| Structure (SMILES) | pIC50 ([1]; read-out: Peak current IC50) | pIC50 [1, 3] | Effect on NR1/NR2B glutamate receptors (in words) [1] | whole brain concentration higher than free concentration in serum ([2]; 20 mg/kg/day) [fold] | whole brain concentration higher than free concentration in serum ([2]; 100 mg/kg/day) [fold] |
| --- | --- | --- | --- | --- | --- |
| CC12CC3CC(C)(C1)CC(N)(C3)C2.Cl [Memantine-HCl, Memantine, reference compound] | – | – | produced inhibition of the receptors | 44 | – |
| NCC1(c2cccc(O[N+](=O)[O-])c2)C2CC3CC(C2)CC1C3 (stereo not drawn) [Cmpd 2] | 4.14 | 4.32 | – | – | – |
| NC12CC3CC(CC(C3)C1)C2 [amantadine] | – | – | – | – | 16 |
| NCC1(c2cccc(OCCCO[N+](=O)[O-])c2)C2CC3CC(C2)CC1C3 (stereo not drawn) [Cmpd 4] | 4.45 | 4.47 | – | – | – |
| N[C@@H](CCC(=O)O)C(=O)O [Glutamate CRC, L-glutamate, reference compound] | – | – | stimulated the receptors | – | – |

From patent US12071392B2, “Aminoadamantyl nitrate compounds and their use to treat CNS disorders” (Panorama Research, Inc., priority 2017, dated 2024)
